# In ChEMBL document CHEMBL1145489, “Isoniazid induces its own resistance in nonreplicating Mycobacterium tuberculosis” (Antimicrob Agents Chemother, 2007):
# Columns and labels:
# Format in all cases: functional
# [1] = system: Mycobacterium tuberculosis; assay: Antimicrobial activity against Mycobacterium tuberculosis H37Rv subculture 5 with wild type katG mutation in absence of catalase activity
# [2] = system: Mycobacterium tuberculosis; assay: Antimicrobial activity against Mycobacterium tuberculosis H37Rv subculture 6 with katG W328R mutant
# [3] = system: Mycobacterium tuberculosis; assay: Antimicrobial activity against Mycobacterium tuberculosis H37Rv subculture 3 with katG D329H mutant
# [4] = system: Mycobacterium tuberculosis; assay: Antimicrobial activity against Mycobacterium tuberculosis H37Rv subculture 4 with wild type katG mutation in presence of catalase activity
# [5] = system: Mycobacterium tuberculosis; assay: Antimicrobial activity against Mycobacterium tuberculosis H37Rv subculture 1 with wild type katG mutation
smiles,measurement,setting,value
NNC(=O)c1ccncc1 [ISONIAZID],MIC,[1],0.4 µg/mL
same,MIC,[2],>2 µg/mL
same,MIC,[3],>2 µg/mL
same,MIC,[4],>2 µg/mL
same,MIC,[5],0.4 µg/mL
